# Read-outs that look alike come from different tables or passages of the source.
# Assays:
# [1] = target: protein kinases (human kinome) (Homo sapiens, UniProt Q16877); type: cell-based; settings: PFKFB4 (Q16877); experiment wp071
# [2] = target: T1, protein kinases (human kinome) (Homo sapiens, UniProt O14965); type: cell-based; settings: experiment wp076
# T1 sequence (O14965 1-403): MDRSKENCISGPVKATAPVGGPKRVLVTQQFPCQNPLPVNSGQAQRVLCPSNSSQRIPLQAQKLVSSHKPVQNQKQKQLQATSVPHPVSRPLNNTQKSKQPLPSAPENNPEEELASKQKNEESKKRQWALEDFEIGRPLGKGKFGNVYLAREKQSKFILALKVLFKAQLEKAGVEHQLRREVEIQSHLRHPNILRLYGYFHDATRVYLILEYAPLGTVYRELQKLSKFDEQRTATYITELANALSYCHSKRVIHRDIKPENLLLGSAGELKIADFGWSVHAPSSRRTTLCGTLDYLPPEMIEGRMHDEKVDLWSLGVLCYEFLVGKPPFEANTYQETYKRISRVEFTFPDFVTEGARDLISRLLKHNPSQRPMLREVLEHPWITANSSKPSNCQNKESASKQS
# [3] = target: T2, protein kinases (human kinome) (Homo sapiens, UniProt O60285); type: cell-based; settings: NUAK1 (O60285), experiment wp076
# T2 sequence (O60285 1-661): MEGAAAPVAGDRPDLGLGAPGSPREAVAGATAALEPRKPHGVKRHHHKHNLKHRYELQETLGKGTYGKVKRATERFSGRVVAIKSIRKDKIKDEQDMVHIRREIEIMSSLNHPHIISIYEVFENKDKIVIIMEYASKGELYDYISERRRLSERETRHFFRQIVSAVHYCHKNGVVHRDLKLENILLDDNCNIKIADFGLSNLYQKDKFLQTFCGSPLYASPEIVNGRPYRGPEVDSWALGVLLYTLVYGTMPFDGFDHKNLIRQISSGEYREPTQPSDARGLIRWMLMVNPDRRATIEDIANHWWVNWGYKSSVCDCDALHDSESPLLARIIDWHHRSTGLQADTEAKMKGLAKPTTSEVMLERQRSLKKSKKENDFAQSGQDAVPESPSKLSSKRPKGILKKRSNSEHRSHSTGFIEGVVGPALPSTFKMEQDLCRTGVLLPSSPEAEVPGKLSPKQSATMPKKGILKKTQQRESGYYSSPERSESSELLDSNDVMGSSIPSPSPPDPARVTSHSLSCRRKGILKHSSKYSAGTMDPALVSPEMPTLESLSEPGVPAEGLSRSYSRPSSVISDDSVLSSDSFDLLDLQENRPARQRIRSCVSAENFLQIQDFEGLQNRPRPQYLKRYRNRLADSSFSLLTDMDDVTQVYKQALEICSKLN
# [4] = test system: protein kinases (human kinome); type: cell-based
# [5] = target: T3, protein kinases (human kinome) (Homo sapiens, UniProt P52789); type: cell-based; settings: HK2 (P52789); experiment wp076
# T3 sequence (P52789 1-917): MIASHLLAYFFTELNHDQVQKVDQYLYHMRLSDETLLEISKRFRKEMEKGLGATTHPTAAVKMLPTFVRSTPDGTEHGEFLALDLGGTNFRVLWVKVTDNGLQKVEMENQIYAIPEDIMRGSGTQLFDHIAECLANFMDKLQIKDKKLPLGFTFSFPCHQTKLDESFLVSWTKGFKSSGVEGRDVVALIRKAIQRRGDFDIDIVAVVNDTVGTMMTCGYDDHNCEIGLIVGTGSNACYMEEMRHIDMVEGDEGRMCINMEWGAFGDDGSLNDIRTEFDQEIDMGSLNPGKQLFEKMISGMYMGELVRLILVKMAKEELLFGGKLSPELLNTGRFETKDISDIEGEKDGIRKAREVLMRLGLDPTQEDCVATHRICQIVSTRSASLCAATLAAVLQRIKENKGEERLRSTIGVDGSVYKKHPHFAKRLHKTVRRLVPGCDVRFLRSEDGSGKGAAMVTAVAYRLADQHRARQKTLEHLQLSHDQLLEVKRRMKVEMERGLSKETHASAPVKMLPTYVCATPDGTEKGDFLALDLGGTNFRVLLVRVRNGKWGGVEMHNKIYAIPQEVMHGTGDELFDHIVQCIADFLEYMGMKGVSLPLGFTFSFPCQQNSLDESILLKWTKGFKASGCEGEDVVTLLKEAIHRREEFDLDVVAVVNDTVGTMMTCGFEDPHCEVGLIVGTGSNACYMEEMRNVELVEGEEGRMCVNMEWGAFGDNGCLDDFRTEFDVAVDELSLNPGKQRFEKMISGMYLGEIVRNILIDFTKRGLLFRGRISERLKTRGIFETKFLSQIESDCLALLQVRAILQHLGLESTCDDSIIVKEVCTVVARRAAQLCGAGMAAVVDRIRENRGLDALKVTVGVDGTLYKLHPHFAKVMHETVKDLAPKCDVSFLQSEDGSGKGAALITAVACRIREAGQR
# [6] = target: protein kinases (human kinome) (Homo sapiens, UniProt Q9BYT3); type: cell-based; settings: STK33 (Q9BYT3-1), experiment wp076
# [7] = target: protein kinases (human kinome) (Homo sapiens, UniProt P30291); type: cell-based; settings: experiment wp076
# [8] = target: protein kinases (human kinome) (Homo sapiens, UniProt P51812); type: cell-based; settings: RPS6KA3 (P51812), experiment wp076
# [9] = target: protein kinases (human kinome) (Homo sapiens, UniProt Q14289); type: cell-based
# [10] = target: T4, CRBN (Homo sapiens, UniProt Q96SW2); assay: Competitive displacement assay for cellular CRBN engagement (BRD4BD2-GFP reporter, dBET6); type: cell-based, H. sapiens; settings: 5 hours in presence of dBET6
# T4 construct: HEK293T cells stably expressing the BRD4BD2-GFP with mCherry reporter; endogenous in cells; host or cells: HEK293T stably expressing BRD4BD2-GFP / mCherry reporter
# Method: HEK293T cells stably expressing the BRD4BD2-GFP with mCherry reporter were seeded at 30-50% confluency in 384-well plates with 50 μL FluoroBrite™ Dulbecco's Modified Eagle's medium (DMEM) media (Thermo Fisher Scientific. A18967) containing 10% fetal bovine serum (FBS) per well a day before compound treatment. Degrader titrations and 100 nM dBET6 or 250 nM AT1 were dispensed using a D300e Digital Dispenser (HP), normalized to 0.5% DMSO, and incubated with cells for 5 hours. Assay plates were imaged using Acumen® (TTP Labtech), as described above.
# [11] = type: cell-based, H. sapiens; settings: MOLT-4, 1 μM, 5 h, 5 μM CB-5083
# [12] = target: T5, CRBN-degrader-kinase ternary complexes (Homo sapiens, UniProt Q96SW2); assay: FLAG-CRBN affinity purification TMT LC-MS3 (AP-MS) of degrader-mediated ternary complexes; type: cell-based, H. sapiens; settings: HEK293T, 1 μM, 5 h, proteasome inhibitor
# T5 construct: host or cells: HEK293T
# Description: An important aspect of protein degraders is the multifaceted nature of the molecule that enables heightened target selectivity due to differences in complementarity of target-ligase interactions, which is not a consideration when assessing selectivity of inhibitors for target engagement (Famaby el al., Nat Chem Biol 15:672-680 (2019)). For compound-induced degradation to be successful, productive ternary complex formation (ligase-degrader-POI) is necessary for proximity-mediated ubiquitin transfer onto the POI. […] Cellular affinity purification was performed, followed by mass spectrometry (AP-MS) of FLAG-tagged CRBN transiently overexpressed in HEK293T cells. FLAG-CRBN expressing cells were co-treated with proteosome inhibitor and 1 μM of each degrader for 5 h, and the degree of kinase target enrichment was compared to kinase degradation hits in matched global proteomics analysis experiments (FIG. 3A, FIG. 3C). The proteins identified as complexed with CRBN were enriched for kinases as well as their known binding partners such as Cyclin B (CDK1) and RASSF1 (STK4), consistent with the binding profiles of the assayed degraders. All kinases identified by AP-MS except CSNK1A1 were also detected in the HEK293T whole proteome degrader profiling experiment, allowing us to interrogate trends across 52 unique kinases (FIG. 4A; FIG. 11B). Limitations of this experiment include the potential loss of transient or weakly bound complexes in the enrichment and subsequent wash steps, the inherent noise associated with AP-MS relative to global proteomics analysis (Dunham et al., Proteomics 12:1576-1590 (2012): Yugandhar et al., Comput Struct Biotechnol J 17:805-811 (2019)) and the short time point of the experiment, which precludes detection of degradation events with slow kinetics. Therefore, the relationship between the formation of abundant, stable ternary complexes and rapid degradation was assessed.
# HEK293T cells were seeded into 15 cm plates and cells were transiently transfected with 8 μg of pNTM-FLAG-CRBN construct using lipofectamine 2000. […] Cells were harvested with non-enzymatic CellStripper™ Dissociation reagent (Corning®), followed by three washes with cold PBS and snap freezing. Cell lysis was performed by the addition of IP lysis buffer (50 mM Tris. pH 7.5, 0.5% NP-40, 1 mM EDTA, 10% glycerol and 200 mM NaCl) containing protease inhibitor cocktail (cOmplete™) and relevant co-treatment (above), followed by end-over-end rotation at 4° C. for 3 hours. Lysate was clarified by centrifugation and salt concentration diluted to 100 mM NaCl with the addition of 0 mM NaCl lysis buffer (containing protease inhibitors and 1 μM of relevant compounds to retain temary complexes throughout binding). Lysate was added to 20 μL of pre-washed anti-FLAG M2 magnetic bead slurry (MilliporeSigma) and incubated with end-over-end rotation at 4° C. overnight. Beads were washed six times with 100 mM NaCl lysis buffer containing 1 μM of relevant degraders to retain ternary complexes throughout wash steps.
# Proteins were eluted in a two-step elution with the addition of 0.1 M Glycine hydrochloride (MilliporeSigma) and elution buffered to pH 8.5 using 200 mM Tris buffer, pH 8.5. […] Protein pellets were resuspended in 50 μL of EPPs pH 8 and first digested with 2 μg LysC for 12 h at room temperature (RT), followed by 1 μg of trypsin for 6 hours at 37° C.
# [13] = target: protein kinases (human kinome) (Homo sapiens, UniProt P49759); type: cell-based
smiles,measurement,setting,value
COc1cc(N2CCN(CC(=O)NCCCCCCNc3cccc4c3C(=O)N(C3CCC(=O)NC3=O)C4=O)CC2)ccc1Nc1ncc2c(n1)N(C)c1ccccc1C(=O)N2CC(F)(F)F (centres unmarked) [FMF.04.135.1],logFC,[1],−0.4969
CNC(=O)c1ccccc1Nc1cc(Nc2ccc(N3CCN(CCCCCCCCNc4cccc5c4C(=O)N(C4CCC(=O)NC4=O)C5=O)CC3)cc2OC)ncc1C(F)(F)F (centres unmarked) [MFH.5.116.1],logFC AURKA (O14965),[2],−0.707
same,logFC,[3],−0.7078
same,logFC,[3]; direction down,−0.7078
same,logFC RPS6KA1,"[4]; RPS6KA1 (Q15418-2), experiment wp076",−0.5757
same,logFC RPS6KA1 (Q15418-2),[4]; experiment wp076,−0.5757
same,logFC,[5],−0.4347
same,logFC,[6],−1.382
same,logFC,[6]; direction down,−1.382
same,logFC of WEE1,"[7]; WEE1 P30291-1, degrader vs DMSO",−0.4799
same,logFC WEE1 (P30291-1),[7],−0.4799
same,logFC,[8],−0.369
same,logFC,[8]; direction down,−0.369
same,logFC,"[9]; PTK2B (Q14289-1) protein abundance, degrader vs DMSO, down",−2.946
same,logFC PTK2B,"[9]; PTK2B, accession Q14289-1, experiment wp076, direction of change down",−2.946
Nc1ncc(-c2ccc(S(=O)(=O)N(CCCNC(=O)CCOCCOCCOCCOCCOCCNc3cccc4c3C(=O)N(C3CCC(=O)NC3=O)C4=O)C3CC3)cc2)cc1-c1ccc2c(c1)CCNC2=O (centres unmarked) [WH-10417-099],cellular permeability / CRBN engagement,[10],able to permeate the cell membrane and bind to the CRBN E3 ligase
same,STK4 degradation rescue on p97 inhibition,[11],very little degradation rescue
same,targets with significantly different degrader efficacy in the different cell lines with no obvious difference in protein expression,"[4]; MOLT-4, KELLY, HEK293T",GSK3B
same,kinases the bifunctional compound degrades,[4]; as stated for the structure in the embodiments,"CDK14, CSNK1A1, CSNK1D, CSNK1E, GSK3A, GSK3B, LIMK2, MAP3K1, MINK1, NUAK1, PAK4, PIM2, STK10, STK17B, STK35, and STK4"
same,Kinase hits,"[4]; kinases significantly downregulated vs DMSO (fold change cutoff −1.25, P-value<0.01), ≤8 h, 0.1-5 μM degrader, 7 cell lines","CDK14, CSNK1A1, CSNK1D, CSNK1E, GSK3A, GSK3B, LIMK2, MAP3K1, MINK1, NUAK1, PAK4, PIM2, STK10, STKI7B, STK35, STK4"
same,Total no. kinase hits,[4]; number of degraded kinases per library compound,13
same,IRAK1: ternary complex formation with CRBN versus degradation,[12],complex formation does not predict degradation
Cc1ncsc1-c1ccc([C@H](C)NC(=O)[C@@H]2C[C@@H](O)CN2C(=O)[C@@H](NC(=O)CCOCCOCCOCCN2CCC(C(=O)Nc3ncc(SCc4ncc(C(C)(C)C)o4)s3)CC2)C(C)(C)C)cc1 [ZZ.01.31B],logFC,"[4]; CDK9 (P50750-2) protein abundance, degrader vs DMSO, down",−0.837
same,logFC CDK9 (P50750-2),[4]; Experiment wp195,−0.837
same,logFC CLK1,"[13]; CLK1 P49759, experiment wp195",−0.3482
same,logFC of CLK1 (P49759),[13]; Experiment wp195,−0.3482

# — patent US20240269139A1, “COMPOUNDS FOR TARGETED PROTEIN DEGRADATION OF KINASES” (DANA-FARBER CANCER INSTITUTE, INC., priority 2020, published 2024)
